Experimental data: PubChem BioAssay (NCI)
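Grown in 96-well plates, cells were treated for 48 hours with each compound at five concentrations. Insufficient inhibition: endpoint recorded as highest concentration tested. The concentration for 50% growth inhibition is given as GI50. The concentration for full growth arrest is given as TGI.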

Legend:
Assay in all cases: DTP human tumour cell line panel, 48 h
[1] = system: DU-145 prostate
[2] = system: HCT-116 colon
[3] = system: HOP-92 NSCLC
[4] = system: K-562 leukemia
[5] = system: MOLT-4 leukemia
[6] = system: NCI-H23 lung
[7] = system: NCI/ADR-RES ovarian
[8] = system: U251 CNS
[9] = system: UACC-62 melanoma
[10] = system: SNB-75 CNS

SMILES	TGI [1] [µM]	TGI [2] [µM]	TGI [3] [µM]	TGI [4] [µM]	TGI [5] [µM]	TGI [6] [µM]	TGI [7] [µM]	TGI [8] [µM]	TGI [9] [µM]	TGI [10] [µM]	GI50 [1] [µM]	GI50 [3] [µM]	GI50 [4] [µM]	GI50 [5] [µM]	GI50 [6] [µM]	GI50 [7] [µM]	GI50 [10] [µM]	GI50 [8] [µM]	GI50 [9] [µM]
COc1ccc(CC2COc3cc(OC)cc(OC)c3C2=O)cc1 (stereo not given)	77.2	32.7	> 100	> 100	> 100	> 100	39.9	> 100	> 100										
CC1=C2C(O)C(C(C)C(=O)N(C)C)CCC2(C)C=CC1=O (stereo not given)		> 100	> 100	> 100	> 100	> 100	> 100	> 100	> 100	> 100									
CN(C)/C=C/C(=CC=[N+](C)C)/C=C/N(C)C		> 100	> 100	> 100	> 100	> 100		> 100	> 100										
CCC1C[N+]23CCc4c([nH]c5ccccc45)C2CC1CC3 (stereo not given)		> 100	> 100	> 100	95.2	> 100		> 100	> 100	> 100									
O=C1C=C(C2OC(CO)C(O)C2O)C(=O)N1 (stereo not given)		> 100	> 100	> 100	> 100	> 100	> 100	> 100	> 100	> 100									
Cc1n(CC(C)C)c2c([n+]1C)C(=O)c1ccccc1C2=O	0.41	0.23	4.44	> 100	0.955	0.107	> 100	0.499	0.576	1.55									
Cc1ccc2c(ccc(/C=C/c3ccc(O)c4ncccc34)[n+]2C)c1	> 57.3	24.3	31.1	83.4	> 82.2	40.7	> 100	26.8	46.5	43.7									
N#C[S-].[La+3].c1cnc2c(c1)ccc1cccnc12.c1cnc2c(c1)ccc1cccnc12.c1cnc2c(c1)ccc1cccnc12		10.2	18	> 100	6.55	22.2		11.9	4.8	29									
CCOC(=O)Nc1cc2c(c(N)n1)N=C(c1ccc(OC)cc1)CN2	33.3	1.31	48.2	1.32				2.47		0.277									
Cc1ccc(S(=O)(=O)Nc2cccc3c(=O)[nH]cnc23)cc1		> 100	> 100	> 100	> 100	> 100		> 100	> 100	> 100									
CCOP(=Nc1ccc(N(C)C)cc1)(OCC)OCC	> 100	> 100	> 100	> 100	> 100	> 100	> 100	> 100	> 100	> 100									
CC(=O)C(C(c1ccccc1)N1CCOCC1)N1CCOCC1 (stereo not given)	> 100	> 100	> 100	> 100	> 100	> 100	> 100	> 100	> 100	> 100									
CC1(C)[C@@H]2CC[C@]1(C)[C@H](OC(=O)CSC#N)C2	> 100	> 100	> 100			> 100	> 100	> 100	> 100	> 100									
O=S(=O)(O)c1ccc(N=Nc2ccc3c(S(=O)(=O)O)cccc3c2O)c2ccccc12	> 100	> 100	> 100			> 100	> 100	> 100	> 100	> 100									
Cc1cccc(Cl)c1NCC(O)CN1CCN(C)CC1 (stereo not given)	> 100	> 100	> 100	> 100	> 100	> 100	> 100	> 100	> 100	> 100									
COC1OC(CS(=O)(=O)O)C(O)C(O)C1O (stereo not given)	> 100	> 100	> 100	> 100	> 100	> 100	> 100	> 100	> 100	> 100									
C=C1C(=O)OC2/C=C(\C(=O)O)CC/C=C(\C)CC(OC(=O)/C=C(\C)CC)C12 (stereo not given)		25.6	36.8	> 100	> 100	33.2		30.7	28.5	47.6									
COc1cc2c(cc1O)c(O)cc1c3cc(OC)c(OC)cc3c[n+](C)c21	> 43.7	> 100		> 80.5	40.3	29.5	> 100	4.57	> 100	> 100									
CCCC(C)c1ccc(OCCCCCCN2CCNCC2)cc1 (stereo not given)	5.43		6.7	3.97	3.48	5.62	5.37	3.07	3.71	3.06	2.25	1.54	1.51	1.52	2.13	2.22	1.41	1.57	1.95
CN(C)CCNC(=O)c1cccc2c(=O)c3ccccc3oc12		> 100	60.1	> 100	> 100	> 100	> 79.9	> 100	> 76.2	> 87.3									
O=C(c1ccccc1)c1ccc2n[se]nc2c1				> 100	> 100	> 100		> 100	> 100	> 100									
